Values joined by “and” are separate entries in the source; they are usually repeats but may differ in a detail not shown here. Equal values may be shown once.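 Interpolation was linear, between the two tested concentrations surrounding the appropriate level; five concentrations were tested over 48 hours in 96-well plates. Here, GI50 denotes the concentration required for 50% inhibition of growth. TGI: total growth inhibition.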
Columns and labels:
Assay in all cases: NCI-60 cell line screen, 48 h
HCT-15 colon = tested on: HCT-15 colon
HCT-116 colon = tested on: HCT-116 colon
SK-OV-3 ovarian = tested on: SK-OV-3 ovarian
CAKI-1 renal = tested on: CAKI-1 renal
SF-268 CNS = tested on: SF-268 CNS
U251 CNS = tested on: U251 CNS
UACC-257 melanoma = tested on: UACC-257 melanoma
MOLT-4 leukemia = tested on: MOLT-4 leukemia
A498 renal = tested on: A498 renal
MDA-MB-231 breast = tested on: MDA-MB-231 breast

Structure (SMILES)	TGI (HCT-15 colon)	TGI (HCT-116 colon)	TGI (SK-OV-3 ovarian)	TGI (CAKI-1 renal)	TGI (SF-268 CNS)	TGI (U251 CNS)	TGI (UACC-257 melanoma)	TGI (MOLT-4 leukemia)	TGI (A498 renal)	GI50 (HCT-15 colon)	GI50 (HCT-116 colon)	GI50 (SK-OV-3 ovarian)	GI50 (MDA-MB-231 breast)	TGI (MDA-MB-231 breast)	GI50 (SF-268 CNS)	GI50 (U251 CNS)	GI50 (UACC-257 melanoma)	GI50 (MOLT-4 leukemia)	GI50 (A498 renal)	GI50 (CAKI-1 renal)
Cc1ccccc1C1CC(c2ccccc2)=NO1 (centres undefined)	> 100 µM	> 100 µM	> 100 µM	> 100 µM	> 100 µM	> 100 µM	> 100 µM	> 100 µM	> 100 µM	–	–	–	–	–	–	–	–	–	–	–
Cc1cc(Cl)ccc1NC(=O)C(=O)C(C(=O)c1ccccc1)C1OC(=O)c2ccccc21 (centres undefined)	> 100 µM	> 100 µM	> 100 µM	> 100 µM	> 100 µM	> 100 µM	> 100 µM	> 100 µM	> 100 µM	–	–	–	–	–	–	–	–	–	–	–
CC(C)C1N2CCCCC2[C@@H]2c3[nH]c4ccccc4c3CCN12 (some centres undefined)	> 100 µM	> 100 µM	> 100 µM	> 100 µM	> 100 µM	> 100 µM	> 100 µM	> 100 µM	> 100 µM	–	–	–	–	–	–	–	–	–	–	–
CCOCc1cc(=O)c2c(OC)cc3c(c2o1)CCC(C)(C)O3	> 100 µM	> 100 µM	> 100 µM	–	–	> 100 µM	> 100 µM	> 100 µM	–	–	–	–	–	–	–	–	–	–	–	–
COC(=O)C(/C(=N\NC(N)=S)C(=O)Nc1ccccc1[N+](=O)[O-])c1cnc2ccccc2n1 (centres undefined)	> 100 µM	> 100 µM	> 100 µM	> 100 µM	> 100 µM	> 100 µM	> 100 µM	> 100 µM	> 100 µM	–	–	–	–	–	–	–	–	–	–	–
Cc1ccc2nc(NC(=O)/C(=N\NC(=S)NN)C3C(=O)NC(=S)NC3=O)sc2c1	> 100 µM	> 100 µM	> 100 µM	> 100 µM	> 100 µM	> 100 µM	> 100 µM	> 100 µM	> 100 µM	–	–	–	–	–	–	–	–	–	–	–
c1ccc(N/N=C2\NN=C(c3ccccc3)CS2)cc1	20.9 µM	15.2 µM	39.9 µM	8.32 µM	19.8 µM	–	41.4 µM	34.1 µM	25.8 µM	–	–	–	–	–	–	–	–	–	–	–
Cc1nccc2c3ccc(OCc4cn(-c5ccc(Cl)cc5)nn4)cc3n(CC(C)C)c12	21.5 µM	5.65 µM	16.5 µM	–	> 33.3 µM	13.3 µM	16.8 µM	6.54 µM	9.32 µM	1.28 µM	1.3 µM	4.25 µM	4.69 µM	26.5 µM	11.2 µM	2.62 µM	4.62 µM	1.14 µM	1.39 µM	–
Cc1ccc(NC(=O)OCC(COc2ccc(Cl)cc2Cl)OC(=O)Nc2ccc(C)cc2)cc1 (centres undefined)	> 100 µM	> 100 µM	> 100 µM	> 100 µM	> 100 µM	> 100 µM	> 100 µM	–	> 100 µM	–	–	–	–	–	–	–	–	–	–	–
CCOP1(=O)C=C(C)C(=C(Cl)Cl)C(C)=C1 (centres undefined)	36.9 µM	7.13 µM and 13.3 µM	> 100 µM	49.3 µM	> 100 µM	50.9 µM	89 µM	42.9 µM	76.3 µM	–	3.33 µM	–	–	–	15.8 µM	–	11.5 µM	–	–	–
CCN(CC)CCn1c2ccccc2c(=O)c2c(OC)ccc(OC)c21	> 100 µM	> 100 µM	–	> 100 µM	> 100 µM	> 100 µM	> 100 µM	> 100 µM	> 100 µM	–	–	–	–	–	–	–	–	–	–	–
C1C[OH+]CC[OH+]CCNCC[OH+]CC[OH+]CCN1.Cl.[Cl-].[Pt+4]	> 100 µM	> 100 µM	> 100 µM	> 100 µM	> 100 µM	> 100 µM	–	> 100 µM	> 100 µM	> 100 µM	> 100 µM	> 100 µM	–	–	> 100 µM	> 100 µM	–	> 100 µM	> 100 µM	> 100 µM
CCCCCCCC(=O)[O][Hg][CH2]C1COC([CH2][Hg][O]C(=O)CCCCCCC)CO1 (centres undefined)	26.2 µM	8.26 µM	27.6 µM	–	36.9 µM	28.6 µM	–	> 100 µM	–	9.54 µM	2.29 µM	13.2 µM	20.7 µM	50.8 µM	18.2 µM	15.2 µM	–	2.26 µM	–	–
COC[C@H](C)N=CN1CCc2ccccc2C1(Cc1ccccc1)Cc1ccccc1	39.1 µM	29.7 µM	30.6 µM	44.3 µM	45.9 µM	26.9 µM	28.3 µM	37.9 µM	–	–	–	–	–	–	–	–	–	–	–	–
O=C1C2C3C=CC(C2C(=O)N1CN1CCSCC1)C1C2C(=O)N(CN4CCSCC4)C(=O)C2C31 (centres undefined)	> 59.7 µM	> 55.9 µM	> 100 µM	> 100 µM	> 91.6 µM	> 100 µM	> 100 µM	> 100 µM	> 100 µM	–	–	–	–	–	–	–	–	54.2 µM	–	–
CCN(CC)CCNc1ccc2nc(C)n3c4ccc(O)cc4c(=O)c1c23	5.83 µM	10.3 µM	12.6 µM	3.6 µM	12 µM	15.8 µM	21.2 µM	0.293 µM	13.3 µM	–	–	–	–	–	–	–	–	–	–	–
COc1ccc2nc(NC(=O)C(=O)NNC(=O)c3ccncc3)sc2c1	> 100 µM	> 100 µM	> 100 µM	> 100 µM	> 100 µM	> 100 µM	> 100 µM	–	> 100 µM	–	–	–	–	–	–	–	–	–	–	–
CSc1ccc(C(=O)/C=C/c2ccccc2Cl)cc1	28.9 µM	3.96 µM	> 100 µM	30.7 µM	53.3 µM	17.2 µM	29.3 µM	> 100 µM	–	7.73 µM	2.08 µM	32.3 µM	13.3 µM	31.2 µM	22.4 µM	4.75 µM	15.2 µM	24 µM	–	15.4 µM
c1ccc2c(NCCCCCCNc3cccc4ccccc34)cccc2c1	> 100 µM	> 100 µM	> 100 µM	> 100 µM	> 100 µM	> 100 µM	> 100 µM	> 100 µM	> 100 µM	–	–	–	–	–	–	–	–	–	–	–
COc1cc(/C=C2\C[C@H]3[C@@H]4CC=C5C[C@@H](OC(C)=O)CC[C@]5(C)[C@H]4CC[C@]3(C)[C@H]2OC(C)=O)ccc1OCCN1CCCC1	–	30.7 µM	–	25.6 µM	18.8 µM	–	20.1 µM	> 50 µM	–	–	10.5 µM	–	9.01 µM	17 µM	8.94 µM	–	10.8 µM	10.7 µM	–	12 µM

— PubChem BioAssay (NCI)
